Measured values published in patent US8569264B2, “Antibacterial 4,5-substituted aminoglycoside analogs having multiple substituents” (ISIS Pharmaceuticals, Inc., priority 2005, dated 2013).
Values after ≈ are worked out from the molar mass of the structure shown. Values belong to the compound of their own block, whether it stands above or below them.

Tests used:
K. pneumoniae ATCC 10031 = experiment: MIC, K. pneumoniae ATCC 10031; assay type: cell-based; details: for MIC: Klebsiella pneumoniae
Experimental: (§1) The MIC assays are carried out in 150 μL volume in duplicate in 96-well clear flat-bottom plates. The bacterial suspension from an overnight culture growth in appropriate medium is added to a solution of test compound in 4% DMSO in water. Final bacterial inoculum is approximately 10^5-10^6 CFU/well. […] Both ampicillin and tetracycline are used as antibiotic-positive controls in each screening assay for S. pyogenes, E. coli imp-, E. coli, S. aureus, E. faecalis, K. pneumoniae and P. vulgaris. Ciprofloxacin is used as an antibiotic positive control in each screening assay for P. aeruginosa.
(§2) The following compounds were prepared using methods illustrated in the previous examples. The compounds were also examined in standard bacterial assays against E. Coli, S. Aureus, P. aurginosa, K. pneumoniae, P. vulgaris, and A. baumannii to determine activities. Each of the bacterial cultures that are available from ATCC (www.atcc.org) is identified by its ATCC number. A. baumannii is gentamicin sensitive Acinetobacter baumannii #2 from Walter Reed.

[1] = tested on: gentamicin sensitive Acinetobacter baumannii #2 from Walter Reed; experiment: MIC, A. baumannii WReed 2; assay type: cell-based; details: for MIC: Acinetobacter baumannii
Experimental: as §1, §2

P. aurginosa ATCC 25416 = experiment: MIC, P. aurginosa ATCC 25416; assay type: cell-based
Experimental: as §1, §2

P. vulgaris ATCC 8427 = experiment: MIC, P. vulgaris ATCC 8427; assay type: cell-based; details: for MIC: Proteus vulgaris
Experimental: as §1, §2

E. Coli = experiment: MIC, E. Coli; assay type: cell-based; details: for MIC: Escherichia coli
Outline: (§3)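 Broth microdilution in duplicate, 150 μL: overnight-culture bacteria were added to compound in 4% DMSO in water. Final inoculum was about 10^5–10^6 CFU/well.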

S. aureus ATCC 13709 = experiment: MIC, S. aureus ATCC 13709; assay type: cell-based; details: for MIC: Staphylococcus aureus
Experimental: as §1, §2

P. aurginosa ATCC 29248 = experiment: MIC, P. aurginosa ATCC 29248; assay type: cell-based
Experimental: as §1, §2

S. Aureus = experiment: MIC, S. Aureus; assay type: cell-based; details: for MIC: Staphylococcus aureus
Outline: as §3

E. coli ATCC 25922 = experiment: MIC, E. coli ATCC 25922; assay type: cell-based; details: for MIC: Escherichia coli
Experimental: as §1, §2

[2] = target: 18S ribosomal subunit RNA target; experiment: Mass spectrometry based binding assay (FTICR), 18S; details: Example 106
Outline: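 Ligands at varying concentrations were mixed with 2.5 or 5 μM RNA in 100 mM ammonium acetate with 33% isopropyl alcohol, then analysed by negative-mode ESI-FTICR. Complex/free RNA ion ratios plotted against ligand concentration were fitted to a second- or higher-order binding polynomial to give KD.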

[3] = target: 16S ribosomal subunit RNA target; experiment: Mass spectrometry based binding assay (FTICR), 16S; details: Example 106
Outline: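 Binding to the 16S ribosomal subunit RNA target was measured by FTICR mass spectrometry. Ligands or ligand mixtures were prepared at several concentrations in 10 μL of aqueous 100 mM ammonium acetate buffer with 33% isopropyl alcohol. Samples were infused at 1 μL/min into a negative-mode electrospray source, and ions were held 1 sec in an RF-only hexapole. Complex/free RNA ratios versus ligand concentration were fitted to a binding polynomial to obtain KD.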

[4] = tested on: Staphylococcus aureus (Smith Strain ATCC 13709); experiment: Staphylococcus aureus mouse protection assay; assay type: in vivo, mice; details: Staph Conc. 10^6, 10% Mucin, the 13th table
Experimental: Two of the novel aminoglycoside compounds of the invention were examined for their anitbacterial activity against staphylococcus aureus. Mice were fed with autoclaved commercial food pellets and sterile water ad libitum. Animals were inoculated intraperitoneally with 0.5 mL/mouse of the indicated concentration of S. aureus (ATCC 13709) containing 10% mucin. There were 10 mice in each treatment group and compounds were administered subcutaneously one and 3 hour after infection. Compounds 15a (R4═R5═CH3) and 15j (R4═H, R5═(CH2)2C6H5)) were used at 75 mg/kg, 37.5 mg/kg, 18.8 mg/kg, 9.4 mg/kg, 4.7 mg/kg, 2.3 mg/kg, 1.17 mg/kg and 0.5 mg/kg. Amakacin, paromomycin and neomycin were used as the positive controls at concentrations of 2 mg/kg, 1 mg/kg and 0.5 mg/kg.
Test compound was administered as an aqueous buffer solution (phosphate buffered saline (PBS), pH=7.4).

[5] = tested on: E. coli S30 bacterial extract (pBestLuc firefly luciferase reporter); experiment: Coupled bacterial transcription/translation assay; assay type: biochemical; details: Example 106; read-out: Trans/Trans IC50
Outline: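 Coupled transcription/translation of firefly luciferase from 1 μg pBestLuc (tac promoter) in E. coli S30 extract, with or without test compound. Reaction 35 min at 37° C., then functional luciferase detected by luminescence.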

Structure (SMILES): NCC1OC(OC2C(CO)OC(OC3C(O)C(N)CC(N)C3OC3OC(CNCCc4ccc(F)cc4)C(O)C(O)C3N)C2O)C(N)C(O)C1O (stereo not shown) [Compound 15o]
MIC K. pneumoniae ATCC 10031 (K. pneumoniae ATCC 10031; Example 111): 0.6 to 1.3 µM
MIC A. baumannii WReed 2 ([1]; Example 111): 10 to 20 µM
MIC P. aurginosa ATCC 25416 (P. aurginosa ATCC 25416; Example 111): >40 µM
MIC P. vulgaris ATCC 8427 (P. vulgaris ATCC 8427; Example 111): >40 µM
MIC E. Coli. (E. Coli; Example 109): 0.6 to 1.2 µM
MIC S. aureus ATCC 13709 (S. aureus ATCC 13709; Example 111): 0.3 to 0.6 µM
MIC P. aurginosa ATCC 29248 (P. aurginosa ATCC 29248; Example 111): >40 µM
MIC S. Aureus (S. Aureus; Example 109): 0.2 to 0.3 µM
MIC E. coli ATCC 25922 (E. coli ATCC 25922; Example 111): 1.3 to 2.5 µM

MIC (K. pneumoniae ATCC 10031; ATCC10031, Example 110): 0.6 to 1.3 µM (≈ 0.43 to 0.932 µg/mL)
MIC (K. pneumoniae ATCC 10031; ATCC10031, Example 111): 0.6 to 1.3 µM (≈ 0.43 to 0.932 µg/mL)
MIC ([1]; Example 110): 2.5 to 5 µM (≈ 1.79 to 3.58 µg/mL)
MIC ([1]; Example 111): 5 to 10 µM (≈ 3.58 to 7.17 µg/mL)
MIC (P. aurginosa ATCC 25416; Example 110): 1.3 to 2.5 µM (≈ 0.932 to 1.79 µg/mL)
MIC (P. aurginosa ATCC 25416; Example 111): 10 to 20 µM (≈ 7.17 to 14.3 µg/mL)
MIC (P. vulgaris ATCC 8427; ATCC8427, Example 110): 5 to 10 µM (≈ 3.58 to 7.17 µg/mL)
MIC (P. vulgaris ATCC 8427; ATCC8427, Example 111): 2.5 to 5 µM (≈ 1.79 to 3.58 µg/mL)
MIC (E. Coli; Example 107): 5 to 10 µM (≈ 3.58 to 7.17 µg/mL)
MIC (S. aureus ATCC 13709; ATCC13709, Example 110): 20 to 40 µM (≈ 14.3 to 28.7 µg/mL)
MIC (S. aureus ATCC 13709; ATCC13709, Example 111): 1.3 to 2.5 µM (≈ 0.932 to 1.79 µg/mL)
MIC (P. aurginosa ATCC 29248; Example 110): 5 to 10 µM (≈ 3.58 to 7.17 µg/mL)
MIC (P. aurginosa ATCC 29248; Example 111): 5 to 10 µM (≈ 3.58 to 7.17 µg/mL)
MIC (S. Aureus; Example 107): 1.3 to 2.5 µM (≈ 0.932 to 1.79 µg/mL)
MIC (E. coli ATCC 25922; ATCC25922, Example 110): 2.5 to 5 µM (≈ 1.79 to 3.58 µg/mL)
MIC (E. coli ATCC 25922; ATCC25922, Example 111): 5 to 10 µM (≈ 3.58 to 7.17 µg/mL)
Structure (SMILES): NCC[C@H](O)C(=O)N[C@@H]1C[C@H](N)[C@@H](O[C@H]2O[C@H](CO)[C@@H](O)[C@H](O)[C@H]2N)[C@H](O[C@@H]2O[C@H](CO)[C@@H](O[C@H]3O[C@@H](CN)[C@@H](O)[C@H](O)[C@H]3N)[C@H]2O)[C@H]1O [Compound 67, N-1-haba paromomycin]

Structure (SMILES): NC[C@@H]1O[C@H](O[C@H]2[C@@H](O)[C@H](O[C@@H]3[C@@H](O)[C@H](N)C[C@H](N)[C@H]3O[C@H]3O[C@H](CO)[C@@H](O)[C@H](O)[C@H]3N)O[C@@H]2CO)[C@H](N)[C@@H](O)[C@@H]1O [paromomycin, reference compound]
MIC (K. pneumoniae ATCC 10031; ATCC10031, Example 111): 0.6 to 1.3 µM (≈ 0.369 to 0.8 µg/mL)
MIC ([1]; Example 111): 2.5 to 5 µM (≈ 1.54 to 3.08 µg/mL)
Kd [2]: 4.8 µM
MIC (P. aurginosa ATCC 25416; Example 111): > 40 µM
MIC (P. vulgaris ATCC 8427; ATCC8427, Example 111): > 40 µM
MIC (E. Coli; Example 106): 20 to 40 µM (≈ 12.3 to 24.6 µg/mL)
MIC (S. aureus ATCC 13709; ATCC13709, Example 111): 10 to 20 µM (≈ 6.16 to 12.3 µg/mL)
Kd [3]: 0.6 µM
# Dead mice/Total mice in group ([4]; 0.5 mg/kg subcutaneously): 10/10
# Dead mice/Total mice in group ([4]; 1 mg/kg subcutaneously): 10/10
# Dead mice/Total mice in group ([4]; 2 mg/kg subcutaneously): 9/10
MIC (P. aurginosa ATCC 29248; Example 111): > 40 µM
MIC (S. Aureus; Example 106): 3 to 5 µM (≈ 1.85 to 3.08 µg/mL)
MIC (E. coli ATCC 25922; ATCC25922, Example 111): 5 to 10 µM (≈ 3.08 to 6.16 µg/mL)
IC50 [5]: 0.1 µM
